Results on 56 molecules are retold here after patent US9145391B2, “Bipyridylaminopyridines as Syk inhibitors” (Merck Sharp & Dohme Corp., priority 2011, dated 2015).

Some results are limits rather than exact numbers.

The target of the test is recombinant human GST-Syk (Homo sapiens (Human), UniProt P43405). Description: Homogeneous Time-Resolved Fluorescence (HTRF) assay for the recombinant human Syk enzyme. The test is classed as biochemical. To be noted: recombinant human GST-Syk 5 pM, ATP 25 μM, read-out: rhSyk IC50. The method, boiled down: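 HTRF read-out of phosphorylation of a biotinylated Syk-site peptide (250 nM final) by a GST-tagged human Syk fusion. Reaction initiated with ATP at 25 μM final plus 5 mM magnesium final. Compound potency taken from inhibition of human Syk activity.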
Turning to `Cc1cc(Nc2cc(C(F)(F)F)ccn2)nc(-c2ccc(N3CCOCC3)nc2)c1` [Example 2-30], the IC50 came out at 14 nM. The result for `Cc1cc(Nc2cc(C(F)(F)F)ccn2)nc(-c2ccc(OC[C@H]3CC[C@H](C(=O)O)CC3)nc2)c1` [Example 3, trans-4-{[(4-Methyl-6-{[4-(trifluoromethyl)pyridin-2-yl]amino}-2,3′-bipyridin-6′-yl)oxy]methyl}cyclohexanecarboxylic acid] reads 3 nM. Then `Cc1cc(Nc2cc(C(F)(F)F)ccn2)nc(-c2ccc(N3CCC(C4CCCCC4C(=O)O)CC3)nc2)c1` (centres unmarked) [Example 3-1], with 3 nM.

Regarding `Cc1cc(Nc2cc(C(F)(F)F)ccn2)nc(-c2ccc(NC3CCN(C(=O)c4cnc5ccc(F)cc5c4)CC3)nc2)c1` [Example 4, (6-Fluoroquinolin-3-yl)(4-(4-methyl-6-(4-(trifluoromethyl)pyridin-2-ylamino)-2,3′-bipyridin-6′-ylamino)piperidin-1-yl)methanone], the IC50 stood at 8 nM. The result for `Cc1cc(Nc2cc(C(F)(F)F)ccn2)nc(-c2ccc(NC3CCN(C(=O)Cc4ccc(-c5cn[nH]c5)cc4)CC3)nc2)c1` [Example 4-1] reads 9 nM; that for `Cc1cc(Nc2cc(C(F)(F)F)ccn2)nc(-c2ccc(NC3CCN(C(=O)Cc4ccc5ccn(C)c5c4)CC3)nc2)c1` [Example 4-2], 1 nM. Turning to `Cc1cc(Nc2cc(C(F)(F)F)ccn2)nc(-c2ccc(NC3CCN(C(=O)Cc4ccc5cn[nH]c5c4)CC3)nc2)c1` [Example 4-3], the 50% inhibitory concentration (IC50) is 8 nM. Turning to `Cc1cc(Nc2cc(C(F)(F)F)ccn2)nc(-c2ccc(NC3CCN(C(=O)c4ccc5c(c4)C(=O)NC5)CC3)nc2)c1` [Example 4-4], the half-inhibitory concentration (IC50) turned out to be 1 nM. Consider `Cc1cc(Nc2cc(C(F)(F)F)ccn2)nc(-c2ccc(NC3CCN(C(=O)c4ccc5c(c4)CNC5=O)CC3)nc2)c1` [Example 4-5], for which the IC50 stood at 2 nM. Turning to `Cc1cc(Nc2cc(C(F)(F)F)ccn2)nc(-c2ccc(NC3CCN(C(=O)c4[nH]c5ccccc5c4C)CC3)nc2)c1` [Example 4-6], the concentration for half-maximal inhibition (IC50) stood at 22 nM. As for `Cc1cc(Nc2cc(C(F)(F)F)ccn2)nc(-c2ccc(NC3CCN(C(=O)c4ccc5[nH]cc(C)c5c4)CC3)nc2)c1` [Example 4-7], the IC50 came out at 10 nM. Consider `Cc1cc(Nc2cc(C(F)(F)F)ccn2)nc(-c2ccc(NC3CCN(C(=O)Cc4n[nH]c5ccccc45)CC3)nc2)c1` [Example 4-8], for which the IC50 stood at 7 nM. Regarding `Cc1cc(Nc2cc(C(F)(F)F)ccn2)nc(-c2ccc(NC3CCN(C(=O)c4cccc(-c5cn[nH]c5)c4)CC3)nc2)c1` [Example 4-9], the half-maximal inhibitory concentration (IC50) came out at 12 nM. For the molecule `Cc1cc(Nc2cc(C(F)(F)F)ccn2)nc(-c2ccc(NC3CCN(C(=O)c4cc(-c5ccccc5)n[nH]4)CC3)nc2)c1` [Example 4-10], the IC50 was 14 nM.

`Cc1cc(Nc2cc(C(F)(F)F)ccn2)nc(-c2ccc(NC3CCN(C(=O)CCN4CCCC4=O)CC3)nc2)c1` [Example 4-11]: the 50% inhibitory concentration (IC50) is 2 nM. Consider `Cc1cc(Nc2cc(C(F)(F)F)ccn2)nc(-c2ccc(NC3CCN(C(=O)Cc4cccc5ncccc45)CC3)nc2)c1` [Example 4-12], for which the concentration for half-maximal inhibition (IC50) came out at 4 nM. As to `Cc1cc(Nc2cc(C(F)(F)F)ccn2)nc(-c2ccc(NC3CCN(C(=O)c4cccc5ncccc45)CC3)nc2)c1` [Example 4-13], the 50% inhibitory concentration (IC50) was found to be 9 nM. Consider `Cc1cc(Nc2cc(C(F)(F)F)ccn2)nc(-c2ccc(NC3CCN(C(=O)c4ccc5sc(C)nc5c4)CC3)nc2)c1` [Example 4-14], for which the 50% inhibitory concentration (IC50) was determined as 6 nM. With `Cc1cc(Nc2cc(C(F)(F)F)ccn2)nc(-c2ccc(NC3CCN(C(=O)c4ccc5cc[nH]c5c4)CC3)nc2)c1` [Example 4-15], the IC50 was determined as 7 nM. Consider `CC(=O)N1CCC(Nc2ccc(-c3cc(C)cc(Nc4cc(C(F)(F)F)ccn4)n3)cn2)CC1` [Example 4-16], for which the half-maximal inhibitory concentration (IC50) came to 4 nM. For the molecule `Cc1cc(Nc2cc(C(F)(F)F)ccn2)nc(-c2ccc(N3CCCC(NC(=O)c4ccc5cc[nH]c5c4)C3)nc2)c1` (centres unmarked) [Example 4-17], the concentration for half-maximal inhibition (IC50) was 32 nM.

On to `CC(=O)NC1CCCN(c2ccc(-c3cc(C)cc(Nc4cc(C(F)(F)F)ccn4)n3)cn2)C1` (centres unmarked) [Example 4-18], for which the IC50 is 14 nM. Then `Cc1cc(Nc2cc(C(F)(F)F)ccn2)nc(-c2ccc(NC3CCN(C(=O)c4cccc(-c5ccncc5)c4)CC3)nc2)c1` [Example 4-19], with 12 nM; and `Cc1cc(Nc2cc(C(F)(F)F)ccn2)nc(-c2ccc(NC3CCN(C(=O)c4ccccc4N4CCN(C)CC4)CC3)nc2)c1` [Example 4-20], with 4 nM; and `Cc1cc(Nc2cc(C(F)(F)F)ccn2)nc(-c2ccc(NC3CCN(C(=O)c4cc5cccc(C)c5nc4C)CC3)nc2)c1` [Example 4-21], with 89 nM. Regarding `Cc1cc(Nc2cc(C(F)(F)F)ccn2)nc(-c2ccc(NC3CCN(C(=O)c4ccc(C(N)=O)cc4)CC3)nc2)c1` [Example 4-23], the IC50 turned out to be 3 nM. `Cc1cc(Nc2cc(C(F)(F)F)ccn2)nc(-c2ccc(NC3CCN(C(=O)c4ccc5ccccc5n4)CC3)nc2)c1` [Example 4-24]: the IC50 is 7 nM. Regarding `Cc1cc(Nc2cc(C(F)(F)F)ccn2)nc(-c2ccc(NC3CCN(C(=O)COc4ccccc4-c4ccccc4)CC3)nc2)c1` [Example 4-25], the IC50 amounted to 209 nM. Regarding `Cc1cc(Nc2cc(C(F)(F)F)ccn2)nc(-c2ccc(NC3CCN(C(=O)c4ccccc4Cn4cncn4)CC3)nc2)c1` [Example 4-26], the IC50 is 7 nM.

Consider `Cc1cc(Nc2cc(C(F)(F)F)ccn2)nc(-c2ccc(NC3CCN(C(=O)c4cccc(C(N)=O)c4)CC3)nc2)c1` [Example 4-27], for which the half-maximal inhibitory concentration (IC50) stood at 3 nM.

`Cc1cc(Nc2cc(C(F)(F)F)ccn2)nc(-c2ccc(NC3CCN(C(=O)c4cn[nH]c4-c4ccccc4)CC3)nc2)c1` [Example 4-28]: the IC50 was 27 nM. The result for `Cc1cc(Nc2cc(C(F)(F)F)ccn2)nc(-c2ccc(NC3CCN(C(=O)c4cccc(Cn5cccn5)c4)CC3)nc2)c1` [Example 4-29] reads 7 nM. On to `Cc1cc(Nc2cc(C(F)(F)F)ccn2)nc(-c2ccc(NC3CCN(C(=O)c4nn(-c5ccccc5)nc4C)CC3)nc2)c1` [Example 4-30], for which the IC50 worked out at 137 nM. Then `Cc1cc(Nc2cc(C(F)(F)F)ccn2)nc(-c2ccc(NC3CCN(C(=O)c4ccnn4-c4ccccc4)CC3)nc2)c1` [Example 4-32], with 54 nM; and `Cc1cc(Nc2cc(C(F)(F)F)ccn2)nc(-c2ccc(NC3CCN(C(=O)c4cccc5[nH]ccc45)CC3)nc2)c1` [Example 4-33], with 7 nM.

For `Cc1cc(Nc2cc(C(F)(F)F)ccn2)nc(-c2ccc(NC3CCN(C(=O)Cc4ccc5[nH]c(C)c(C)c5c4)CC3)nc2)c1` [Example 4-34], the IC50 worked out at 8 nM. Then `Cc1cc(Nc2cc(C(F)(F)F)ccn2)nc(-c2ccc(NC3CCN(C(=O)c4nccc5ncccc45)CC3)nc2)c1` [Example 4-35], with 3 nM; and `Cc1cc(Nc2cc(C(F)(F)F)ccn2)nc(-c2ccc(NC3CCN(C(=O)c4cccc(-n5cccn5)c4)CC3)nc2)c1` [Example 4-36], with 10 nM; and `Cc1cc(Nc2cc(C(F)(F)F)ccn2)nc(-c2ccc(NC3CCN(C(=O)c4cnn5cccnc45)CC3)nc2)c1` [Example 4-37], with 1 nM. Take `Cc1cc(Nc2cc(C(F)(F)F)ccn2)nc(-c2ccc(NC3CCN(C(=O)c4ccccc4N(C)C)CC3)nc2)c1` [Example 4-38]: the half-maximal inhibitory concentration (IC50) was 40 nM. Turning to `Cc1cc(Nc2cc(C(F)(F)F)ccn2)nc(-c2ccc(NC3CCN(C(=O)c4cccc5cc(O)ccc45)CC3)nc2)c1` [Example 4-39], the IC50 was 7 nM.

In the case of `Cc1cc(Nc2cc(C(F)(F)F)ccn2)nc(-c2ccc(NC3CCN(C(=O)c4cccc(C(F)(F)F)c4)CC3)nc2)c1` [Example 4-40], the half-inhibitory concentration (IC50) is 102 nM. In the case of `Cc1cc(Nc2cc(C(F)(F)F)ccn2)nc(-c2ccc(NC3CCN(C(=O)Cc4ccc5ccccc5c4)CC3)nc2)c1` [Example 4-41], the IC50 stood at 58 nM. Take `Cc1cc(Nc2cc(C(F)(F)F)ccn2)nc(-c2ccc(NC3CCN(C(=O)c4cccc(N(C)C)c4)CC3)nc2)c1` [Example 4-42]: the concentration for half-maximal inhibition (IC50) was found to be 4 nM. The result for `Cc1cc(Nc2cc(C(F)(F)F)ccn2)nc(-c2ccc(NC3CCN(C(=O)c4cccc5c4C(=O)c4ccccc4-5)CC3)nc2)c1` [Example 4-43] reads 29 nM; that for `Cc1cc(Nc2cc(C(F)(F)F)ccn2)nc(-c2ccc(NC3CCN(C(=O)c4ccc5cccnc5n4)CC3)nc2)c1` [Example 4-44], under 0.5 nM. `Cc1cc(Nc2cc(C(F)(F)F)ccn2)nc(-c2ccc(NC3CCN(C(=O)c4cccc5cccnc45)CC3)nc2)c1` [Example 4-45]: the IC50 amounted to 7 nM. Take `Cc1cc(Nc2cc(C(F)(F)F)ccn2)nc(-c2ccc(NC3CCN(C(=O)c4cccc(S(C)(=O)=O)c4)CC3)nc2)c1` [Example 4-46]: the 50% inhibitory concentration (IC50) came out at 4 nM. In the case of `Cc1cc(Nc2cc(C(F)(F)F)ccn2)nc(-c2ccc(NC3CCN(C(=O)c4cc(-n5cccn5)ccc4Cl)CC3)nc2)c1` [Example 4-48], the IC50 stood at 30 nM.

For the molecule `Cc1cc(Nc2cc(C(F)(F)F)ccn2)nc(-c2ccc(NC3CCN(C(=O)c4ccc5ccccc5c4)CC3)nc2)c1` [Example 4-49], the IC50 amounted to 19 nM. For `Cc1cc(Nc2cc(C(F)(F)F)ccn2)nc(-c2ccc(NC3CCN(C(=O)c4cccc(Oc5ccccc5)c4)CC3)nc2)c1` [Example 4-50], the 50% inhibitory concentration (IC50) came to 97 nM. `Cc1cc(Nc2cc(C(F)(F)F)ccn2)nc(-c2ccc(NC3CCN(C(=O)c4cnc5ccc(C)cc5c4)CC3)nc2)c1` [Example 4-51]: the IC50 is 10 nM. As for `Cc1cc(Nc2cc(C(F)(F)F)ccn2)nc(-c2ccc(NC3CCN(C(=O)Cc4cccc5ccccc45)CC3)nc2)c1` [Example 4-52], the IC50 was 53 nM.

For the molecule `COc1ccc2cc(CC(=O)N3CCC(Nc4ccc(-c5cc(C)cc(Nc6cc(C(F)(F)F)ccn6)n5)cn4)CC3)ccc2c1` [Example 4-53], the IC50 was found to be 78 nM. The result for `Cc1cc(Nc2cc(C(F)(F)F)ccn2)nc(-c2ccc(NC3CCN(C(=O)c4cccc5c4Cc4ccccc4-5)CC3)nc2)c1` [Example 4-54] reads 149 nM; that for `COc1ccc2cc(C(C)C(=O)N3CCC(Nc4ccc(-c5cc(C)cc(Nc6cc(C(F)(F)F)ccn6)n5)cn4)CC3)ccc2c1` (centres unmarked) [Example 4-55], 223 nM.
